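Grown in 96-well plates, cells were treated for 48 hours with each compound at five concentrations. Insufficient inhibition: endpoint recorded as highest concentration tested. GI50 = concentration required for 50% inhibition of growth.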 Activity calls are given as the source filed them. Cut-off read from the data, not from the text of the source: active = GI50 up to about 1.1 µM and inactive = higher.
How the values were obtained:
Assay in all cases: growth of human tumour cells (NCI), 48 h
[1] = tested on: SF-295
[2] = tested on: SNB-19
[3] = tested on: MDA-N
[4] = tested on: RXF 393
[5] = tested on: KM12
[6] = tested on: M14
[7] = tested on: A549
[8] = tested on: COLO 205
[9] = tested on: MCF7
[10] = tested on: SN12C
[11] = tested on: SK-OV-3
[12] = tested on: OVCAR-4
[13] = tested on: UO-31
[14] = tested on: HOP-62
[15] = tested on: TK-10
[16] = tested on: A498
[17] = tested on: T47D
[18] = tested on: HCT-116
[19] = tested on: SF-268
[20] = tested on: NCI-H226
[21] = tested on: SK-MEL-2
[22] = tested on: UACC-62
[23] = tested on: SK-MEL-28
[24] = tested on: K562
[25] = tested on: RPMI-8226
[26] = tested on: Malme-3M
[27] = tested on: MOLT-4
[28] = tested on: ACHN
[29] = tested on: SNB-75
[30] = tested on: NCI-H23
[31] = tested on: OVCAR-8
[32] = tested on: MDA-MB-231
[33] = tested on: Hs-578T
[34] = tested on: U-251
[35] = tested on: HCT-15
[36] = tested on: HOP-92
[37] = tested on: NCI-H460
[38] = tested on: SK-MEL-5
[39] = tested on: 786-0
[40] = tested on: SF-539
[41] = tested on: OVCAR-3
[42] = tested on: HT-29
[43] = tested on: HL-60
[44] = tested on: IGROV-1
[45] = tested on: BT-549
[46] = tested on: UACC-257
[47] = tested on: NCI-H522
[48] = tested on: OVCAR-5
[49] = tested on: CCRF-CEM
[50] = tested on: CAKI-1
[51] = tested on: NCI/ADR-RES
[52] = tested on: SR
[53] = tested on: SW-620
[54] = tested on: LOX IMVI
[55] = tested on: DU-145
[56] = tested on: EKVX
[57] = tested on: PC-3
[58] = tested on: MDA-MB-435
[59] = tested on: HCC 2998

## CC1=CP(=O)(c2c(C(C)C)cc(C(C)C)cc2C(C)C)CCC1Cl (centres undefined)
[1]
  GI50: 12.4 µM (inactive)
[2]
  GI50: 14.4 µM (inactive)
[3]
  GI50: 21.7 µM (inactive)
[4]
  GI50: 14.7 µM (inactive)
[5]
  GI50: 17.3 µM (inactive)
[6]
  GI50: 14 µM (inactive)
[7]
  GI50: 14.1 µM (inactive)
[8]
  GI50: 14.9 µM (inactive)
[9]
  GI50: 15.4 µM (inactive)
[10]
  GI50: 17.7 µM (inactive)
[11]
  GI50: 19.4 µM (inactive)
[12]
  GI50: 19.3 µM (inactive)
[13]
  GI50: 13.9 µM (inactive)
[14]
  GI50: 17 µM (inactive)
[15]
  GI50: 15.9 µM (inactive)
[16]
  GI50: 15.9 µM (inactive)
[17]
  GI50: 11.6 µM (inactive)
[18]
  GI50: 20.1 µM (inactive)
[19]
  GI50: 16.3 µM (inactive)
[20]
  GI50: 19.1 µM (inactive)
[21]
  GI50: 16.1 µM (inactive)
[22]
  GI50: 12 µM (inactive)
[23]
  GI50: 18.6 µM (inactive)
[24]
  GI50: 10.2 µM (inactive)
[25]
  GI50: 13.3 µM (inactive)
[26]
  GI50: 13.9 µM (inactive)
[27]
  GI50: 6.7 µM (inactive)
[28]
  GI50: 15.9 µM (inactive)
[29]
  GI50: 14 µM (inactive)
[30]
  GI50: 16.6 µM (inactive)
[31]
  GI50: 21.2 µM (inactive)
[32]
  GI50: 15.3 µM (inactive)
[33]
  GI50: 27.5 µM (inactive)
[34]
  GI50: 14.8 µM (inactive)
[35]
  GI50: 16 µM
[36]
  GI50: 13.6 µM (inactive)
[37]
  GI50: 16 µM (inactive)
[38]
  GI50: 16.6 µM (inactive)
[39]
  GI50: 18.1 µM (inactive)
[40]
  GI50: 17.1 µM (inactive)
[41]
  GI50: 10.1 µM (inactive)
[42]
  GI50: 16.4 µM (inactive)
[43]
  GI50: 13.7 µM (inactive)
[44]
  GI50: 15.4 µM (inactive)
[45]
  GI50: 17.1 µM (inactive)
[46]
  GI50: 11.6 µM (inactive)
[47]
  GI50: 14.1 µM (inactive)
[48]
  GI50: 16.4 µM (inactive)
[49]
  GI50: 14.1 µM (inactive)
[50]
  GI50: 16.8 µM (inactive)
[51]
  GI50: 15 µM (inactive)
[52]
  GI50: 0.769 µM (active)
[53]
  GI50: 21.6 µM (inactive)
[54]
  GI50: 18.8 µM (inactive)
[55]
  GI50: 19.6 µM (inactive)
[56]
  GI50: 16 µM (inactive)
[57]
  GI50: 13.4 µM (inactive)
[58]
  GI50: 17.7 µM (inactive)

## Cc1ccc(C(=O)NN=C(/N=N/c2cccc(C)c2)c2ccc(N(C)C)cc2)cc1
[1]
  GI50: > 100 µM (inactive)
[2]
  GI50: > 100 µM (inactive)
[3]
  GI50: 50.9 µM (inactive)
[59]
  GI50: > 100 µM (inactive)
[5]
  GI50: > 100 µM (inactive)
[6]
  GI50: > 100 µM (inactive)
[7]
  GI50: > 100 µM (inactive)
[8]
  GI50: > 100 µM (inactive)
[9]
  GI50: > 100 µM (inactive)
[10]
  GI50: > 100 µM (inactive)
[11]
  GI50: 64 µM (inactive)
[12]
  GI50: > 100 µM (inactive)
[13]
  GI50: > 100 µM (inactive)
[15]
  GI50: > 100 µM (inactive)
[17]
  GI50: 2.82 µM (inactive)
[18]
  GI50: > 100 µM (inactive)
[19]
  GI50: > 100 µM (inactive)
[20]
  GI50: > 100 µM (inactive)
[21]
  GI50: > 100 µM (inactive)
[22]
  GI50: > 100 µM (inactive)
[23]
  GI50: > 100 µM (inactive)
[24]
  GI50: > 100 µM (inactive)
[25]
  GI50: > 100 µM (inactive)
[27]
  GI50: > 100 µM (inactive)
[28]
  GI50: > 100 µM (inactive)
[30]
  GI50: > 100 µM (inactive)
[31]
  GI50: > 100 µM (inactive)
[32]
  GI50: > 100 µM (inactive)
[33]
  GI50: > 100 µM (inactive)
[34]
  GI50: > 100 µM (inactive)
[35]
  GI50: > 100 µM
[36]
  GI50: 51.8 µM (inactive)
[37]
  GI50: > 100 µM (inactive)
[38]
  GI50: > 100 µM (inactive)
[39]
  GI50: > 100 µM (inactive)
[40]
  GI50: > 100 µM (inactive)
[41]
  GI50: > 100 µM (inactive)
[42]
  GI50: > 100 µM (inactive)
[43]
  GI50: > 100 µM (inactive)
[44]
  GI50: > 100 µM (inactive)
[45]
  GI50: > 100 µM (inactive)
[46]
  GI50: > 100 µM (inactive)
[47]
  GI50: > 100 µM (inactive)
[48]
  GI50: > 100 µM (inactive)
[49]
  GI50: > 100 µM (inactive)
[50]
  GI50: > 100 µM (inactive)
[51]
  GI50: > 100 µM (inactive)
[52]
  GI50: > 100 µM (inactive)
[53]
  GI50: > 100 µM (inactive)
[54]
  GI50: > 100 µM (inactive)
[55]
  GI50: 28.4 µM (inactive)
[56]
  GI50: > 100 µM (inactive)
[57]
  GI50: > 100 µM (inactive)
[58]
  GI50: > 100 µM (inactive)

## CCCCN(C(=O)c1ccccc1)C1CCC(=O)c2[nH]c3ccccc3c21 (centres undefined)
[1]
  GI50: 30.5 µM (inactive)
[2]
  GI50: 43.6 µM (inactive)
[3]
  GI50: 50 µM (inactive)
[4]
  GI50: 25.8 µM (inactive)
[59]
  GI50: 34.4 µM (inactive)
[5]
  GI50: 79.6 µM (inactive)
[6]
  GI50: 67.1 µM (inactive)
[7]
  GI50: 34.4 µM (inactive)
[8]
  GI50: 21 µM (inactive)
[9]
  GI50: 27.4 µM (inactive)
[10]
  GI50: 57.1 µM (inactive)
[11]
  GI50: 61.1 µM (inactive)
[12]
  GI50: 26.7 µM (inactive)
[13]
  GI50: 66.5 µM (inactive)
[14]
  GI50: 40.4 µM (inactive)
[15]
  GI50: 37.5 µM (inactive)
[16]
  GI50: 29 µM (inactive)
[17]
  GI50: 26.9 µM (inactive)
[18]
  GI50: 24.7 µM (inactive)
[19]
  GI50: 45.4 µM (inactive)
[20]
  GI50: 29 µM (inactive)
[22]
  GI50: 25 µM (inactive)
[23]
  GI50: 90.2 µM (inactive)
[24]
  GI50: 49.7 µM (inactive)
[25]
  GI50: 19.4 µM (inactive)
[26]
  GI50: 55 µM (inactive)
[27]
  GI50: 32.8 µM (inactive)
[28]
  GI50: 31.3 µM (inactive)
[29]
  GI50: 0.481 µM (active)
[30]
  GI50: 62.4 µM (inactive)
[31]
  GI50: 45.8 µM (inactive)
[32]
  GI50: 23.7 µM (inactive)
[33]
  GI50: 16.9 µM (inactive)
[34]
  GI50: 29.1 µM (inactive)
[35]
  GI50: 24.5 µM
[36]
  GI50: 22.1 µM (inactive)
[37]
  GI50: 35.4 µM (inactive)
[38]
  GI50: 18.7 µM (inactive)
[39]
  GI50: 42.1 µM (inactive)
[40]
  GI50: 31.5 µM (inactive)
[41]
  GI50: 64.7 µM (inactive)
[42]
  GI50: 20.5 µM (inactive)
[43]
  GI50: 8.75 µM (inactive)
[44]
  GI50: 46.3 µM (inactive)
[45]
  GI50: 36.9 µM (inactive)
[46]
  GI50: 54 µM (inactive)
[47]
  GI50: 38.7 µM (inactive)
[49]
  GI50: 29.6 µM (inactive)
[50]
  GI50: 20.8 µM (inactive)
[51]
  GI50: 30.8 µM (inactive)
[52]
  GI50: 11.2 µM (inactive)
[53]
  GI50: 59.4 µM (inactive)
[54]
  GI50: 43.1 µM (inactive)
[55]
  GI50: 75 µM (inactive)
[56]
  GI50: 51.6 µM (inactive)
[57]
  GI50: 20.7 µM (inactive)
[58]
  GI50: 23.1 µM (inactive)

Source: ChEMBL document CHEMBL1201862, “PubChem BioAssay data set” (2004)
